In patent US20050100577A1, “Expandable medical device with beneficial agent matrix formed by a multi solvent system” (priority 2003, published 2005):

Assays:
[1] = cited from earlier work
[2] = Text: A second drug, such as paclitaxel, which is soluble in anisole can be provided in the top layers. Therefore, the arrangement shown in FIG. 4 can include 2-CdA in the first therapeutic agent layer 60 and paclitaxel in the second therapeutic agent layer 70.

Q: With `Nc1nc(Cl)nc2c1ncn2[C@H]1C[C@H](O)[C@@H](CO)O1` [2-CdA, 2-chlorodeoxyadenosine] as the molecule, how does the water solubility [1] read?
A: about 4.5 mg/ml

Q: What about the “solubility in first solvent, DMSO” value [2] of the same molecule?
A: very soluble

Q: And the “solubility in second solvent, anisole” value [2]?
A: marginal solubility
